The term pIC50 denotes the negative decadic logarithm of the IC50, by convention in mol/L.

Two compounds from US5270310A, “N-aminoalkyl amide inhibitors of protein kinase C” (Sphinx Pharmaceuticals Corporation, priority 1991, dated 1993) can be followed below.

Experiment [1] relates to MCF-7 human breast tumor cell line. Put plainly: Human Tumor Cell Growth Inhibition, MCF-7. The experiment is classed as cell-based. The settings on record: Homo sapiens, MCF7; 3H-thymidine incorporation; value outside parentheses (not salt). The procedure: MCF-7 a human breast tumor cell line and MCF-7/ADR an adriamycin resistant line of MCF-7 cells were obtained from the National Cancer Institute, Frederick, Md. […] Human tumor cells are trypsinized (0.05% trypsin, GIBCO), counted with a hemacytometer and seeded at a concentration of 10,000 cells/well in a 96 well microtiter plate. After allowing cells to attach to the surface overnight, the culture medium is aspirated and replaced with 100 μl of fresh medium. Test agents are diluted to determine dose response at 2× final concentration and added in quadruplicate at 100 μl/well to bring the total volume of each well to 200 μl. The microtiter plate is then incubated at 37° C. 5% CO2 overnight (18-24 hrs) before ^3 H-thymidine is added at a concentration of 0.5 μCi/well in 50 μl culture medium. The plate is incubated again for 4 hrs under the same conditions as above. Supernatant is then aspirated and 50 μl trypsin (0.05%, GIBCO) is added to each well. Cells are checked microscopically to determine detachment from surfaces, and plates are then harvested with a cell harvester (PHD, Cambridge Technology, Inc.) Filter papers corresponding to wells are placed in scintillation vials and counted to determine the amount of ^3 H-thymidine incorporated by the cells. Test agent response is compared to a positive control of cell wells with culture media only to determine the IC50. IC50 is the concentration of test compound required to inhibit fifty per cent of the incorporation of ^3 H-thymidine into proliferating cells not exposed to test agent. Uptake of ^3 H-thymidine is a standard test for measuring the metabolism of cells. Cells which are actively proliferating take up ^3 H-thymidine, whereas cells that are not proliferating take up ^3 H-thymidine at much slower rates or not at all. Test agents that inhibit the uptake of ^3 H-thymidine thus slow the growth of cells.
On the technique in general: Uptake of a labelled nucleoside into DNA is a usual measure of proliferation.

Experiment [2] addresses T1, protein kinase (PKA), catalytic subunit (Homo sapiens, UniProt P17612).
T1 construct: purchased Sigma Chemical Company, St. Louis, Mo
Put plainly: cAMP-Dependent Protein Kinase (PKA) Assay. It is filed as biochemical. The settings on record: free base. The procedure: Compound found to be inhibitors of protein kinase C are tested for inhibitory activity against protein kinase (PKA). This enzyme, like protein kinase C, plays an important role in cell-cell communication and is activated by a second messenger, cAMP. Secondary screening against PKA is useful for ascertaining the selectivity of the compounds of the invention. The catalytic subunit of PKA (Sigma Chemical Company, St. Louis, Mo.) is mixed with buffer before addition of the inhibitor in dimethylsulfoxide (DMSO). The assay is started by the addition of 32P-ATP and the reaction is allowed to proceed for 10 min before stopping with 25% trichloroacetic acid (TCA) and 1.0 mg/ml bovine serum albumin (BSA). The phosphorylated protein is isolated by filtration and the radioactivity is counted in a beta scintillation counter.

For experiment [3], the system named is NHEK cells (proliferating keratinocytes). Put plainly: Human Keratinocyte Inhibition. The experiment is classed as cell-based. The note with it: 3H-thymidine incorporation, value outside parentheses (not salt), read-out: NHEK IC50. The procedure: Proliferating keratinocytes (NHEK cells purchased from Clonetics, Inc., San Diego, Calif.) in second passage were grown in Keratinocyte Growth Medium (KGM) (Clonetics, Inc.) Cells are trypsinized (0.025% trypsin, Clonetics), counted with a hemacytometer (Scientific Products), and seeded at a concentration of 2,500 cells/well in a 96 well microtiter plate. After allowing cells to attach to the surface overnight, the culture medium is aspirated and replaced with 100 μl of fresh KGM. […] IC50 is the concentration of test compound required to inhibit fifty percent of the incorporation of ^3 H-thymidine into proliferating cells not exposed to test agent.

Experiment [4] deals with protein kinase C (PKC). Put plainly: Protein Kinase C Inhibition. The experiment is classed as biochemical, rat. The procedure:
The protein kinase C (PKC) assay is designed to duplicate the in vivo conditions required for protein kinase C function. Therefore, pH, salt and cofactor concentrations are similar to physiologic levels. Histone H1 (lysine rich) is used in the assay as the phosphorylation acceptor protein because it is readily available and serves as a good substrate for protein kinase C. The enzyme is prepared from rat brain and is purified to apparent homogeneity as determined by a single band on silver stained SDS-polyacrylamide. Studies on the mechanism of regulation of protein kinase C by phospholipids, DAG and Ca^+2 have been hampered by the physical properties of the lipid cofactors. In the screening assay, phosphatidylserine (PS) and DAG are co-sonicated to form unilamellar and multilamellar vesicles. The concentration of lipids in the assay are suboptimal to maximize the detection potential of the assay for inhibitors. […] The assay is started with the addition of enzyme and stopped after 10 min by the addition of 25% trichloroacetic acid (TCA) and 1.0 mg/ml bovine serum albumin (BSA). The radioactive histone product is retained and washed on glass fiber filters that allow the unreacted ^32 P-ATP to pass through. The amount of phosphorylation is determined by the radioactivity measured in a scintillation counter. Controls are included in every assay to measure background activity in the absence of enzyme, activity in the absence of lipids and the maximum enzyme activity with saturating levels of the activator lipids.
Both the free base and the HCl salt were tested.

In experiment [5] the test system is MCF-7/ADR adriamycin resistant line of MCF-7 cells. Put plainly: Human Tumor Cell Growth Inhibition, MCF-7/ADR. It is filed as cell-based. The settings on record: NCI/ADR-RES, 3H-thymidine incorporation, value without parentheses (not salt). An excerpt:
MCF-7 a human breast tumor cell line and MCF-7/ADR an adriamycin resistant line of MCF-7 cells were obtained from the National Cancer Institute, Frederick, Md. CEM cells (ATCC accession number CCL 119) were obtained from the American Type Culture Collection, Rockville, Md. Human tumor cells are trypsinized (0.05% trypsin, GIBCO), counted with a hemacytometer and seeded at a concentration of 10,000 cells/well in a 96 well microtiter plate. After allowing cells to attach to the surface overnight, the culture medium is aspirated and replaced with 100 μl of fresh medium. Test agents are diluted to determine dose response at 2× final concentration and added in quadruplicate at 100 μl/well to bring the total volume of each well to 200 μl. The microtiter plate is then incubated at 37° C. 5% CO2 overnight (18-24 hrs) before ^3 H-thymidine is added at a concentration of 0.5 μCi/well in 50 μl culture medium. The plate is incubated again for 4 hrs under the same conditions as above. Supernatant is then aspirated and 50 μl trypsin (0.05%, GIBCO) is added to each well. Cells are checked microscopically to determine detachment from surfaces, and plates are then harvested with a cell harvester (PHD, Cambridge Technology, Inc.) Filter papers corresponding to wells are placed in scintillation vials and counted to determine the amount of ^3 H-thymidine incorporated by the cells. […]

Experiment [6] deals with PMA-stimulated neutrophils. Put plainly: Neutrophil Superoxide Anion (O2^-) Release Assay. The note with it: Homo sapiens, Neutrophil; PMA-stimulated; value outside parentheses (not salt); read-out: Neutrophil Superoxide Release IC50. The experiment is classed as cell-based, human. How it is done: Neutrophils are isolated form whole blood collected from human volunteers. All reagent materials are obtained from Sigma Chemical Company with the exception of isotonic saline (Travenol Laboratories, Inc., Deerfield, Ill.) and lymphocyte separation medium (Organon Teknika, Durham, N.C.).
Whole blood is drawn and mixed with sodium heparin (final conc. 10 units/ml) to prevent clotting. An equal volume of dextran (3.0%) in isotonic saline is added, mixed, and allowed to settle for 30 min to bind red blood cells (RBC). Supernatant is removed, underlayered with lymphocyte separation medium and centrifuged for 40 min at 400 xg in a centrifuge (Beckman GPR, Norcross, Ga). The pellet is alternately resuspended in 0.2% and 1.6% NaCl to lyse RBCs before washing with Hank's Balanced Salt Solution (HBSS). The washed pellet is resuspended in 10 mL HBSS and placed on ice before counting on a hemacytometer.
The neutrophil cell concentration is adjusted to 2×10^6 cells/ml with HBSS before adding 0.8 mL cells to 12×75 mm polypropylene test tubes (Fisher Scientific). Test agents are diluted to determine dose response and added at 10× final concentration at a volume of 0.1 mL/tube in duplicate. Then 10× concentrations of cytochrome C (15 mg/ml) with catalase (3000 units/ml) either alone or containing 25 ng/ml phorbol 12-myristate 13-acetate (PMA) are added at a volume of 0.1 mL/tube and incubated at 37° C. for 30 min before stopping the reaction by placing tubes on ice. Tubes are then centrifuged at 900 xg for 10 min, 0.5 mL supernatant is removed and added to 0.5 mL H2 O in a microcuvette. Optical density (OD) of cytochrome c is read in a spectrophotometer (Shimadzu) at 550 nm. The ΔOD of cytochrome c is obtained between PMA-stimulated and non-stimulated tubes, and the dose responses of the test agents are compared to the positive controls (which contain HBSS in place of test agents). PMA stimulates O2^- production which reduces cytochrome c. Reducing cytochrome c increases its absorbance, and the change in OD of cytochrome c is proportional to the amount of O2^- produced by PMA stimulation. Inhibition of the O2^- burst by test compounds of the invention is seen as a reduction in the change in optical density. Inhibition is expressed as IC50 μM and is the amount of test compound that will inhibit fifty percent of the PMA-stimulated respiratory outburst, i.e. O2^- production.

pIC50: −log10 of the molar value.

Turning to `CCCCCCCCCCCCCCCC(=O)N(C)CCC[N+]1(C)CCOCC1` [Compound 16, 4-[N-hexadecanoyl-N-methyl-4-(3-aminopropyl)]-4-methylmorpholimium iodide], the negative-log IC50 (pIC50) in experiment [1] was 4.71; in experiment [2] it was 3.88; in experiment [3], 5.85; in experiment [4] (free base), 4.66; in experiment [5] it was less than 4.60.

For `CCCCCCCCCCCCCCCC(=O)NCCCN1CCCCC1C` (stereo not drawn) [Compound 11, 2-Methyl-l-[3-(N-hexadecanoyl)aminopropyl]piperidine], the pIC50 in experiment [1] is 5.39; in experiment [2] it was less than 3.66; in experiment [4] (HCl salt), 4.18; in experiment [4] (free base), 3.89; in experiment [5], 5.59; in experiment [6], 5.74.
